Test results: patent US10548935B2, “Composition and method for preventing, reducing, alleviating or treating idiopathic vomiting” (Mars, Incorporated, priority 2013, dated 2020)

Tests used:
NK-1 receptor = biological target: T1, NK-1 receptor (Homo sapiens, UniProt P25103); test: Tango GPCR cell-based assay, TACR1-bla U2OS cells, NK-1 receptor inhibitors; conditions: 1 nM SAR9 Substance P agonist
T1 construct: host or cells: U2OS (Tango TACR1-bla)
Description: Various known high through-put screening assays can also be used to determine the inhibitory effects of a material on the NK-1 receptors.
One exemplary assay is the Tango™ G-Protein Coupled Receptors (GPCR) cell-based assays by Invitrogen. First, TACR1-bla U2OS cells (from Invitrogen) are cultured in McCoy's medium. The cultured cells are then plated in DMEM into 96-well plates (15,125 cells/well in 90 uL/well). After 16-24 hours, the cells are treated with test materials or positive control antagonist (which is 100 nM Aprepitant) and then incubated for 30-60 minutes at 37° C. in 5% CO2. Subsequently, the cells are treated with 1 nM SAR9 Substance P agonist and incubated again for 5 hours at 37° C. in 5% CO2. The plates are removed from the incubator and equilibrated at room temperature for 15 minutes. During the equilibration step, the LiveBlazer substrate detection solution (from Invitrogen) is prepared. Six times of substrate mixture is added to each well, followed by incubating the plates in the dark at room temp for 2 hours. The plates are read by the Envision microplate reader in 2 channels using the “Geneblazer 451” protocol, which include a blue channel (Excitement at 405 and Emission at 460) and a green channel (Excitement at 405 and Emission at 535).
FIGS. 45-70 show the NK-1 dosage response curves of compounds described hereinabove with high NK-1 inhibitory effect.

h5HT3A receptor = biological target: T2, h5HT3A receptor (Homo sapiens, UniProt P46098); test: Assays for screening 5-HT3a receptor inhibitors (FLIPR calcium assay or aequorin-assisted serotonin receptor assay; dosage response curves); assay type: cell-based
T2 construct: expressed in transfected cells
T2 sequence (P46098 24-478): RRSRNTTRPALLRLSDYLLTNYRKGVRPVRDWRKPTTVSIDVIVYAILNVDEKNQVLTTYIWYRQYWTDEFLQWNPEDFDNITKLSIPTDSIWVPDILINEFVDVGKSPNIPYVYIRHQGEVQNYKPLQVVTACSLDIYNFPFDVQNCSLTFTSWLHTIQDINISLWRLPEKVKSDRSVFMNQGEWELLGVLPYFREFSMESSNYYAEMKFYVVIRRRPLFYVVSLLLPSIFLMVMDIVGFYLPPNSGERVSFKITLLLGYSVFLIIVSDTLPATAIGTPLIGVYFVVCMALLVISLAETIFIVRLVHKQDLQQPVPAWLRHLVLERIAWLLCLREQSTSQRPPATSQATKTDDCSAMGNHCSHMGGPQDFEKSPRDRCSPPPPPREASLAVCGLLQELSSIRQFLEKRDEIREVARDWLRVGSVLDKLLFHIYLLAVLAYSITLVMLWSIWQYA
Excerpt: Various known high through-put screening assays can be used to determine the inhibitory effects of a material on the 5-HT3a receptors.
Due to activation of 5HT3 receptor following calcium and sodium influx and the subsequent rapid intracellular calcium and sodium increase, a calcium indicator (e.g., Fluo-4 AM) or a sodium dye can therefore be readily used to detect influx Ca^+2 or Na^+ signal using the Flourometric Imaging Plate Reader (FLIPR) assay to identify agonists or antagonists of 5-HT3a receptors.
The 5-HT3a FLIPR assay can specifically be conducted by the following steps. First, […] (human embryonic kidney) cells stably expressed with h5HT3A receptor are grown in 16-18 ml growth medium in a 75 cm^2 flask for 2-3 days at 37° C. in a mammalian cell culture incubator with 5% CO2 and 90% humidity. The growth medium may contain, for example, DMEM/F12 (1:1, Invitrogen 11039) supplemented with 10% FBS (fetal bovine serum), 100 μg/ml Antibiotic/Antimycotic, and 150 ug/ml G418. The cell medium is then transferred to a 50 ml tube, and the cells are washed with 10 ml PBS. Subsequently, 2 ml of 0.05% Trypsin-EDTA is added to detach cells, and the above cell medium is added back to flask to inactivate trypsin. Next, the cells are transferred back to the above 50 ml tube, which is centrifuged at 850 rpm for 3 minutes to remove medium. The cells obtained from centrifugation are then re-suspended with growth medium at 1-1.5 ml per flask cells. One vial of Fluo-4 AM (calcium indicator, 50 ug) is subsequently dissolved with 20 ul of Pluronic F-127, and 10 ul of Fluo-4 AM solution per flask cells is added (1 vial of Fluo-4 AM solution, 20 ul, is good for 2 flask of cells). The cells are then stained with Fluo-4 AM for 30 min at room temperature with gently shaking on a shaker, followed by addition of 45 ml of the assay buffer [HBSS with CaCl2 and MgCl2 (Invitrogen 14025), 20 mM HEPES, pH7.2] to wash cells once. Centrifugation is carried out once more at 850 rpm for 3 minutes to remove assay buffer. The resulting cell pellet is again re-suspended in Assay buffer (per flask cells with 18-20 ml assay buffer). Ninety microliters of cells (50K cells/well) is loaded in the 96-well plates that are pre-loaded with the compounds to be tested (10 ul of 1 mM test materials, the final concentration of the test materials will be 100 uM). The plates are placed at room temperature for 15-30 min in dark and then transferred to FLIPR-384 instrument (Molecular Devices). […] The calcium signal of the test plates is finally recorded by the FLIPR program. The average and standard deviations are calculated using Excel, and the background (buffer) is subtracted. The percentage (%) inhibition is then calculated as
[formula] A test material will be considered as having an inhibitory effect against the 5-HT3a receptor if the percentage inhibition calculated is greater than 40%.
Aequorin is a photo-protein originating from the Jellyfish Aequorea Victoria. It is initially translated as an apo-enzyme requiring the hydrophobic group coelenterazine to initiate the conversion to aequorin. Upon binding of calcium, the coelenterazine is oxidized by aequorin into coelenteramide (BFP) resulting in the emission of blue light and CO2. Therefore, it is particularly useful for visualizing or detecting influx Ca^+2 signal.
After 18-24 h of culture, the cells are detached gently by flushing with their cell culture medium. Washing with an additional 10 mLs of cell culture media will ensure that optimum number of cells is captured. The cells are then centrifuged at 150×g, counted and re-suspended at 1×10^6 cells/mL in BSA medium [DMEM/Ham's F12 (with 15 mM HEPES, L-glutamine, without phenol red) culture medium (Invitrogen, Cat. No. 11039-021)+10% protease-free BSA (Sigma Aldrich, Cat. No. A9205) in H2O with a final BSA concentration of 0.1%] in a Falcon tube. Coelenterazine is added at a final concentration of 5 μM in assay medium.

T1 sequence (P25103 whole entry): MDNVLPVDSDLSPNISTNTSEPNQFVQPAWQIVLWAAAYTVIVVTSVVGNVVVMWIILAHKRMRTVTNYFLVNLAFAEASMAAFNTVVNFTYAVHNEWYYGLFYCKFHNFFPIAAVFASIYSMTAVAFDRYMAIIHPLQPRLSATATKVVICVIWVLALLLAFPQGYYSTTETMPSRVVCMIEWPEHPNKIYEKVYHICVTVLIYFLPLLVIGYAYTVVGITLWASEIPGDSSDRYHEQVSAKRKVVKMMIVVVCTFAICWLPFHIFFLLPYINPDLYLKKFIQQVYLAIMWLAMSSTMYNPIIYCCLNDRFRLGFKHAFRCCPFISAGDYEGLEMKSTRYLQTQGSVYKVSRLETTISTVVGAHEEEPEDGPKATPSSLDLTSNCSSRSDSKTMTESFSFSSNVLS

Structure (SMILES) | NK-1 receptor inhibitory effect (NK-1 receptor) | cell toxicity (Cell toxicity) | 5-HT3a receptor inhibitory effect (h5HT3A receptor)
O=c1cc(-c2ccc(O)c(O)c2)oc2cc(O)cc(O)c12 [Luteolin] | surprisingly high | little or no | surprisingly high
O=c1c(O)c(-c2ccccc2)oc2ccc(O)cc12 [3,6-Dihydroxyflavone] | surprisingly high | little or no | surprisingly high
CC1(C)[C@@H](O)CC[C@]2(C)[C@H]3C(=O)C=C4[C@@H]5C[C@@](C)(C(=O)O)CC[C@]5(C)CC[C@@]4(C)[C@]3(C)CC[C@@H]12 [18-Beta-glycyrrhetic acid] | surprisingly high | little or no | surprisingly high
C[C@H]1[C@H](C)CC[C@]2(C(=O)O)CC[C@]3(C)C(=CC[C@@H]4[C@@]5(C)C[C@@H](O)[C@H](O)[C@@](C)(CO)[C@@H]5CC[C@]43C)[C@H]12 [Asiatic acid] | surprisingly high | little or no | surprisingly high
COc1cc(/C=C/C(=O)CC(=O)/C=C/c2ccc(O)c(OC)c2)ccc1O [Curcumin] | surprisingly high | – | surprisingly high
CCCCCCCCCCCCCC[C@@H](O)[C@@H](O)[C@@H](N)CO [Phytosphingosine] | surprisingly high | little or no | –
O=c1cc(-c2ccc(O)cc2)oc2cc(O)cc(O)c12 [Apigenin] | surprisingly high | little or no | –
COC1=C(OC)C(=O)C(C)=CC1=O [Ubiquinone-O] | surprisingly high | little or no | surprisingly high
O=C(/C=C/c1ccc(O)cc1)c1ccccc1 [4-Hydroxychalcone] | surprisingly high | little or no | surprisingly high
O=C(/C=C/c1ccccc1)c1ccccc1 [Chalcone] | surprisingly high | little or no | –
CCCC/C=C/C=C/C=O [Trans,trans-2,4-nonadienal] | surprisingly high | little or no | –
COc1ccc(/C=C/C=O)cc1 [Trans-4-methoxycinnamaldehyde] | surprisingly high | little or no | –
CCCCCCCCCCCCCCCC(=O)OC(CC(=O)O)C[N+](C)(C)C.[Cl-] (racemic) [DL-palmitoylcarnitine chloride] | surprisingly high | little or no | surprisingly high
Oc1ccc(C=Cc2cc(O)cc(O)c2)cc1 [Resveratrol] | surprisingly high | – | surprisingly high
O=C(/C=C/c1ccccc1O)c1ccc(O)cc1O [2,2′,4′-trihydroxy-chalcone] | surprisingly high | little or no | –
c1ccc2c(Cc3c[nH]c4ccccc34)c[nH]c2c1 [3,3′-diindolylmethane] | surprisingly high | little or no | –
